Assay results reported in patent publication US8729034B2, “Pharmaceutical composition having virucidal and spermicidal activity” (priority 2007, dated 2014).

System: human sperm
Test: Modified Kremer-Test, cervical mucus penetration (Experiment B)
Assay type: cell-based
Conditions: treated at MEC; 30 minutes at 37 degree C
From the text: A modified Kremer-Test was used for assessment of cervical mucus penetrating capacity of treated sperm. A drop of human mid-cycle cervical mucus was placed on a slide and flattened by a cover slip (22 mm×22 mm). A drop of human sperm suspension treated with the test compounds (at MEC) was deposited at the side of the cover slip and in contact with the edge, the sperm suspension moved in under the cover slip by capillary force and a clear interface was obtained between the sperm suspension and the cervical mucus. The slide preparation was placed within a CO2 incubator at 37 degree C. for 30 minutes. Suitable control sets were prepared side by side. Each preparation was examined under a phase contrast microscope to observe the entry of spermatozoa into the cervical mucus zone.

For Acaciaside-B [Ac-B], the “Entry of treated spermatozoa into human cervical mucus” value was “none of them crossed into the interface”.
